Test results published in PMC9739180, “Discovery of a Flavonoid FM04 as a Potent Inhibitor to Reverse P-Glycoprotein-Mediated Drug Resistance in Xenografts and Improve Oral Bioavailability of Paclitaxel” (International Journal of Molecular Sciences, 2022).
Read-outs that look alike come from different tables or passages of the source.

Columns and labels:
P-gp = P-gp (Homo sapiens, UniProt P08183); experiment: Reversal of P-gp-mediated MDR in LCC6MDR cells (MTS cell viability, 5 days)
Experimental: To each well of a 96-well plate, 6500 cells of LCC6MDR were seeded in 180 μL supplemented medium. A 10 µL compound (FD18, 14a, FM04 or FM327) at different concentrations (0, 62.5, 125, 250, 500 and 1000 nM) was added to the well. […] The final volume in each well was 200 µL and the 96-well plate was incubated at 37 °C for 5 days. The cell viability was determined using the MTS assay as reported previously. The % of cell survival, IC50 of anticancer drugs towards the LCC6MDR and the EC50 of modulators were analyzed using nonlinear regression in Prism 5.0 (Prism version 5.0, GraphPad software, San Diego, CA, USA).

[1] = Pharmacokinetics of PTX and FM04 after oral co-administration; format: in vivo, Balb/c mice; details: mice
Experimental: Pharmacokinetics (PK) study of PTX or FM04 after their oral co-administration. […] PTX (20 or 70 mg/kg) was orally co-administered with FM04 (0, 22 or 45 mg/kg) to mice, plasma was collected at 30, 60, 120, 240 and 420 min, respectively. […] FM04 (45 or 100 mg/kg) was orally co-administered with PTX (0, 50 or 70 mg/kg) to mice, plasma was collected at 30, 60, 120, 240 and 420 min, respectively. The concentration FM04 at each time point was determined by UPLC-MS/MS Pharmacokinetic parameter AUC was calculated by the pharmacokinetic software-Summit® PK solutions 2.0 (Summit Research Service, Ashland, Wilmington, DE, USA).
PTX drug solution was prepared in 5% Cremophor EL, 5% ethanol and 90% saline on the day of the experiment. PTX + FM04 drug solution was prepared in 7% Cremophor EL, 8% ethanol and 85% saline on the day of the experiment. PTX drug solution or PTX + FM04 mixture drug solution was administered to the Balb/c mice (female, 4–6 week-old) via oral gavage. Blood was collected via cardiac puncture at scheduled time points (10, 30, 60, 120, 240 and 420 min) under deep anesthesia. All animals were terminated at the end of the experiment. Plasma concentrations of FM04 and PTX were detected using UPLC-MS/MS. Plasma concentration–time profiles were analyzed by non-compartmental analysis (NCA). The area under the plasma concentration–time curve by trapezoid rules (AUC) (from 0 to infinity), the terminal half-life (t1/2β), initial half-life (t1/2α), mean residence time (MRT), maximum observed concentration (Cmax) and time to maximum concentration (Tmax) were calculated by PK Solutions 2.0 (Summit Research Service, Ashland, Wilmington, DE, USA).
PTX and its internal standard (IS) separation were performed on Agilent 1290 series UPLC coupled with Agilent 6460 Triple quadrupole. The calibration curve of PTX was constructed by quantifying the known amount of PTX that spiked to blank mice plasma following identical sample preparation. The mass spectrometer was configured in ESI + ionization mode monitoring MRM ion transition of m/z 854 > 286 (PTX) and m/z 882 > 314 (IS). Source parameters were as follows, gas temp (350 °C), gas flow (8 L/min), nebulizer (35 psi) and capillary (4000 V). UPLC chromatographic separation was performed on Waters Acquity UPLC BEH C18 (1.7 µM, 2.1 × 50 mm) with a 5 min gradient elution of 30% acetonitrile with 0.1% formic acid to 76% ACN with 0.1% formic acid. Milli-Q with 0.1% formic acid was used as the aqueous phase. Each separation and re-equilibration were completed in 9 min.
Detection and quantification of FM04 and its internal standard were done by using the UPLC-MS/MS system consist of an Acquity Waters UPLC interfaced with a triple quadrupole mass spectrometer (Micromass model Quattro Ultima) equipped with an electrospray ionization source in positive mode. The desolvation temperature, capillary voltage, cone gas and desolvation gas were 350 °C, 3 Kv, 150 L/h and 600 L/h, respectively. Multiple reaction monitoring (MRM) was set to monitor the transitions from 416 > 239 (FM04) and 423 > 239 (IS). Chromatography separation was done with an Acquity UPLC BEH C8 column (2.1 × 50 mm, 1.7 µM). The mobile phase consisted of methanol + 0.1% formic acid (solvent B) and Milli-Q water + 0.1% formic acid (solvent A). The flow rate was 0.4 mL/min. The initial condition was 90% solvent A and 10% solvent B. After 1 min elution by the initial condition, a linear gradient was performed with solvent B increasing from 10% to 100% for 10 min. Afterwards, the mobile phase was restored to the initial condition for re-equilibration. The total analysis time was 20 min per injection.

LCC6 cells = experiment: IC50 of anticancer drugs in wild-type LCC6 with or without FM04; format: cell-based, human
Description: Table S1. IC50 of anticancer drugs in LCC6 and LCC6MDR and P-gp modulating activity of FM04.
fold): IC50 of an anticancer drug of LCC6MDR without FM04/IC50 of an anticancer of LCC6 with or without
FM04 or LCC6MDR with FM04. N = 2 - 8 independent experiment. The IC50 values were presented as mean ±
standard error mean. /: not determined.

[2] = oral, PTX 20 mg/kg + FM04 45 mg/kg, relative to 20 mg/kg PTX alone
[3] = oral, PTX 70 mg/kg + FM04 22 mg/kg, relative to 70 mg/kg PTX alone
[4] = oral, PTX 70 mg/kg + FM04 45 mg/kg, relative to 70 mg/kg PTX alone

P-gp, sequence (P08183 whole entry): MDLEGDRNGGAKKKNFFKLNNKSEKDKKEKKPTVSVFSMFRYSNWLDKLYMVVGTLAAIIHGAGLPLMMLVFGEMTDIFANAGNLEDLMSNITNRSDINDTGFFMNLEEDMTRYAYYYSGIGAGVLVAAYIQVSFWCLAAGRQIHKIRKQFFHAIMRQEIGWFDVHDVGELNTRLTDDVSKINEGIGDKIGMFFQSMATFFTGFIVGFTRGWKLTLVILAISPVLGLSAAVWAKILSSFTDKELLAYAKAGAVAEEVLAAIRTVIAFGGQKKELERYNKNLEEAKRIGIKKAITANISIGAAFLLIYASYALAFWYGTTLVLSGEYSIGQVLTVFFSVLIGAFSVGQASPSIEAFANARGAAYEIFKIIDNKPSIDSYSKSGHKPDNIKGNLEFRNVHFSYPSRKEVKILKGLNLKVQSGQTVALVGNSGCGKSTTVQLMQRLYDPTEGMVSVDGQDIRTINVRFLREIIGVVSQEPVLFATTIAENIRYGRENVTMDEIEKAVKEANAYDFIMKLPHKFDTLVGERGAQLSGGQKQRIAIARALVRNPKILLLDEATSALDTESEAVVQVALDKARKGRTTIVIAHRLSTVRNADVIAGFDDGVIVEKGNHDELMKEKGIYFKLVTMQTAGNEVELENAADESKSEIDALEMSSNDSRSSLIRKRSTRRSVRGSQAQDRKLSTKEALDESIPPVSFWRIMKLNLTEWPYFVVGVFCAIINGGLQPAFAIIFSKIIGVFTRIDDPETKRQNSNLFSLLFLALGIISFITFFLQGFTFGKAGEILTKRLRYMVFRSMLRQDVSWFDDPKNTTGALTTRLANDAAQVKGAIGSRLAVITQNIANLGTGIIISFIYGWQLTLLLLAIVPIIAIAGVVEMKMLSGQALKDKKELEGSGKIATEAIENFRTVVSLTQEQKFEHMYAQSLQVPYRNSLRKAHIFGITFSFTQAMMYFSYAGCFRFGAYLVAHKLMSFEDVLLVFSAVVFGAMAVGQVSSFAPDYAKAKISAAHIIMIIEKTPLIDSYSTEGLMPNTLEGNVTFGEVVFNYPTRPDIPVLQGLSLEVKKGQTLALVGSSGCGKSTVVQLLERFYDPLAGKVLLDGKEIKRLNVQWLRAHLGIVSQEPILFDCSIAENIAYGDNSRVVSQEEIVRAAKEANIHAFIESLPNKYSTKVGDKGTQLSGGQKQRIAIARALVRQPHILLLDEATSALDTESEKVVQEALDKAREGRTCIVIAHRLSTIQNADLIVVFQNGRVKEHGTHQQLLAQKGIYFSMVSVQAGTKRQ

For `CC(=O)O[C@H]1C(=O)[C@@]2(C)[C@H]([C@H](OC(=O)c3ccccc3)[C@]3(O)C[C@H](OC(=O)[C@H](O)[C@@H](NC(=O)c4ccccc4)c4ccccc4)C(C)=C1C3(C)C)[C@]1(OC(C)=O)CO[C@@H]1C[C@@H]2O` [PTX, paclitaxel], the “RF, LCC6MDR + 1 μM FM04” value (P-gp) was 34.1, the “RF, LCC6MDR + DMSO” value (P-gp) was 1.0 and the AUC ([1]; female, Balb/c, mouse, plasma, po, 20 mg/kg, oral, PTX 20 mg/kg + FM04 45 mg/kg) was 9400 ng·h/mL. For the same molecule, the Cmax ([1]; female, Balb/c, mouse, plasma, po, 20 mg/kg, oral, PTX 20 mg/kg, FM04 0 mg/kg, read-out: PTX Cmax) was 134 ng/mL, the AUC ([1]; female, Balb/c, mouse, plasma, po, 20 mg/kg, PTX 20 mg/kg alone) was 143 ng·h/mL and the AUC ([1]; female, Balb/c, mouse, plasma, po, 70 mg/kg, oral, PTX 70 mg/kg + FM04 45 mg/kg) was 30000 ng·h/mL. For the same molecule, the AUC(0-t) ([1]; female, Balb/c, mouse, plasma, po, 70 mg/kg, oral, PTX 70 mg/kg, FM04 0 mg/kg, read-out: PTX AUC(0-t) (converted)) was 523 ng·h/mL, the Cmax ([1]; female, Balb/c, mouse, plasma, po, 70 mg/kg, oral, PTX 70 mg/kg, FM04 0 mg/kg, read-out: PTX Cmax) was 186 ng/mL and the AUC ([1]; female, Balb/c, mouse, plasma, po, 70 mg/kg, PTX 70 mg/kg alone) was 523 ng·h/mL. For the same molecule, the AUC(0-t) ([1]; female, Balb/c, mouse, plasma, po, oral, PTX 20 mg/kg + FM04 45 mg/kg, read-out: PTX AUC(0-t) (converted)) was 9400 ng·h/mL, the Cmax ([1]; female, Balb/c, mouse, plasma, po, oral, PTX 20 mg/kg + FM04 45 mg/kg, read-out: PTX Cmax) was 3510 ng/mL and the AUC ([1]; female, Balb/c, mouse, plasma, po, oral, PTX 70 mg/kg + FM04 22 mg/kg) was 15500 ng·h/mL. It also gave an AUC(0-t) ([1]; female, Balb/c, mouse, plasma, po, oral, PTX 70 mg/kg + FM04 22 mg/kg, read-out: PTX AUC(0-t) (converted)) of 15500 ng·h/mL, a Cmax ([1]; female, Balb/c, mouse, plasma, po, oral, PTX 70 mg/kg + FM04 22 mg/kg, read-out: PTX Cmax) of 4950 ng/mL and an AUC(0-t) ([1]; female, Balb/c, mouse, plasma, po, oral, PTX 70 mg/kg + FM04 45 mg/kg, read-out: PTX AUC(0-t) (converted)) of 30000 ng·h/mL. The Cmax ([1]; female, Balb/c, mouse, plasma, po, oral, PTX 70 mg/kg + FM04 45 mg/kg, read-out: PTX Cmax) was 9760 ng/mL, the Tmax ([1]; female, Balb/c, mouse, plasma, oral, PTX 20 mg/kg + FM04 45 mg/kg, read-out: PTX Tmax (converted)) was 120 min and the “PTX AUC/Dose fold-change vs PTX alone” value [1, 2] was 66. For the same molecule, the “PTX Cmax fold-change vs PTX alone” value [1, 2] was 26, the “PTX AUC/Dose fold-change vs PTX alone” value [1, 3] was 30 and the “PTX Cmax fold-change vs PTX alone” value [1, 3] was 27. The “PTX AUC/Dose fold-change vs PTX alone” value [1, 4] was 57, the “PTX Cmax fold-change vs PTX alone” value [1, 4] was 53 and the “oral absorption of PTX” value ([1]; oral PTX 70 mg/kg with FM04 22 mg/kg) was 6.6%. For the same molecule, the “oral absorption of PTX” value ([1]; oral PTX with FM04 45 mg/kg) was 14%, the “oral absorption of PTX” value ([1]; oral PTX without FM04) was 0.2% and the IC50 (LCC6 cells; Homo sapiens, LCC-6, wild-type LCC6, no modulator, read-out: IC50 of anticancer drug, LCC6 + DMSO) was 2.1 ± 0.5 nM. For the same molecule, the “RF, LCC6 + DMSO” value (LCC6 cells; IC50 in LCC6MDR without FM04 / IC50 in LCC6) was 61.7 and the “RF, LCC6 + 1 μM FM04” value (LCC6 cells; IC50 in LCC6MDR without FM04 / IC50 in LCC6 with FM04) was 43.2.
For `O=c1cc(-c2ccc(OCCOCCNCc3ccccc3)cc2)oc2ccccc12` [FM04, 2-(4-(2-(2-(benzylamino)ethoxy)ethoxy)phenyl)-4H-chromen-4-one], the EC50 (P-gp) was 83 ± 7 nM, the “EC50 needed for reversing MDR in LCC6MDR cells: PTX” value (P-gp) was 83 nM and the “fold higher potency than FD18 in reversing PTX resistance” value (P-gp) was 1.8 fold. For the same molecule, the EC50 (P-gp; EC50 for P-gp modulation, range over PTX reversal and DOX accumulation in LCC6MDR) was 64 to 83 nM, the EC50 (P-gp; EC50 for chemosensitizing LCC6MDR towards vinblastine, vincristine, DOX, daunorubicin and mitoxantrone, range over the five drugs) was 61 to 153 nM and the EC50 (P-gp; EC50 needed for reversing MDR in LCC6MDR cells: DOX, LCC6MDR) was 153 ± 39 nM. The EC50 (P-gp; EC50 needed for reversing MDR in LCC6MDR cells: Daunorubicin, LCC6MDR) was 88 ± 52 nM, the EC50 (P-gp; EC50 needed for reversing MDR in LCC6MDR cells: Mitoxantrone, LCC6MDR) was 64 ± 27 nM and the EC50 (P-gp; EC50 needed for reversing MDR in LCC6MDR cells: PTX, LCC6MDR, PTX resistance) was 83 nM. For the same molecule, the EC50 (P-gp; EC50 needed for reversing MDR in LCC6MDR cells: Vinblastine, LCC6MDR) was 61 ± 13 nM, the EC50 (P-gp; EC50 needed for reversing MDR in LCC6MDR cells: Vincristine, LCC6MDR) was 83 ± 11 nM and the AUC(0-t) ([1]; female, Balb/c, mouse, plasma, po, 100 mg/kg, oral, FM04 100 mg/kg, PTX 0 mg/kg, read-out: FM04 AUC(0-t) (converted)) was 1820 ng·h/mL. For the same molecule, the Cmax ([1]; female, Balb/c, mouse, plasma, po, 100 mg/kg, oral, FM04 100 mg/kg, PTX 0 mg/kg, read-out: FM04 Cmax) was 1020 ng/mL, the Tmax ([1]; female, Balb/c, mouse, plasma, po, 100 mg/kg, oral, FM04 100 mg/kg, PTX 0 mg/kg, read-out: FM04 Tmax (converted)) was 30 min and the AUC(0-t) ([1]; female, Balb/c, mouse, plasma, po, oral, FM04 45 mg/kg + PTX 50 mg/kg, read-out: FM04 AUC(0-t) (converted)) was 645 ng·h/mL. The Cmax ([1]; female, Balb/c, mouse, plasma, po, oral, FM04 45 mg/kg + PTX 50 mg/kg, read-out: FM04 Cmax) was 754 ng/mL, the Tmax ([1]; female, Balb/c, mouse, plasma, po, oral, FM04 45 mg/kg + PTX 50 mg/kg, read-out: FM04 Tmax (converted)) was 30 min and the AUC(0-t) ([1]; female, Balb/c, mouse, plasma, po, oral, FM04 45 mg/kg + PTX 70 mg/kg, read-out: FM04 AUC(0-t) (converted)) was 740 ng·h/mL. The Cmax ([1]; female, Balb/c, mouse, plasma, po, oral, FM04 45 mg/kg + PTX 70 mg/kg, read-out: FM04 Cmax) was 481 ng/mL, the Tmax ([1]; female, Balb/c, mouse, plasma, po, oral, FM04 45 mg/kg + PTX 70 mg/kg, read-out: FM04 Tmax (converted)) was 60 min and the concentration at 720 min ([1]; female, Balb/c, mouse, plasma, FM04 100 mg/kg oral alone, at 720 min, read-out: minimum plasma concentration of FM04) was 43 ng/mL. For the same molecule, the “oral absorption of FM04” value ([1]; FM04 100 mg/kg oral alone) was less than 0.005% and the “chemosensitization of wild-type LCC6 towards PTX, vinblastine and vincristine” value (LCC6 cells; FM04 1 μM) was “did not chemosensitize the wild-type LCC6 cells”.
